# Reference: patent publication US10266520B2, “Bisamidinium-based inhibitors for the treatment of myotonic dystrophy” (The Board of Trustees of the University of Illinois, priority 2014, dated 2019)
# Assays:
# [1] = test system: insulin receptor (IR) pre-mRNA splicing; test: Correction of IR alternative splicing in DM1 cell model (RT-PCR); assay type: cell-based; details: 1 μM
# Source text: FIG. 3A-B. (a) Schematic representation of IR alternative splicing. (b) Correction of IR splicing by compounds 2a and 1a as determined by conventional RT-PCR. Error bars represent standard deviation for three independent experiments, two-tail t-test *P<0.01,**P<0.005.
# Because 2a is capable of inhibiting MBNL1-rCUG^exp both in vitro and in cells, we evaluated its ability to correct the splicing defects in the DM1 cell model. We chose to examine the IR mRNA mis-splicing, because among several pre-mRNA splicing defects associated with the depletion of MBNL1 protein, the reversal of IR splicing requires the largest amount of free MBNL1 and is therefore the more challenging defect. During the alternative splicing of IR, two products were generated: isoforms IR-A and IR-B with the exclusion and inclusion of exon 11, respectively (FIG. 3a). In normal skeletal muscle, IR-B is the dominant isoform, whereas IR-A is more abundant in DM1 skeletal muscle. […] In particular, compound 2a at 1 μM increased the abundance of isoform B to 49% (ca. 80% correction).
# ITC, EMSA, confocal microscopy, IR splicing, and the reversal of rough-eye phenotype assays were conducted as previously described (Wong et al., J. Am. Chem. Soc. 2014, 136, 6355-6361). […]
# MBNL1-(CUG)16 complex = test: EMSA inhibition of the MBNL1-(CUG)16 complex; assay type: biochemical; details: for Ki: KI=IC50×KD/[protein]total, read-out: KI, apparent inhibition constant, MBNL1-(CUG)16 complex
# Protocol: FIG. 1A-B. Determination of inhibition constants, KI, by EMSA. (a) Representative gels showing the release of (CUG)16 at different ligand concentrations. Top band is the MBNL1-(CUG)16 complex, the bottom band is the free (CUG)16. (b) IC50 values were obtained by plotting the RNA fraction bound versus ligand concentrations. The apparent inhibition constant (KI) was calculated using the equation: KI=IC50×KD/[protein]total, where KD is the dissociation constant of the MBNL1-RNA complex and [protein] is at least 7-fold greater than the KD. Error bars represent standard deviation of three independent experiments.
# An electrophoretic mobility shift assay (EMSA) was employed to determine the in vitro inhibition of MBNL1-rCUG^exp complex by monomer 1a and dimers 2a-b (FIG. 1). This study used (CUG)16, which can form a hairpin structure containing a maximum of 8 U-U mismatches. […] Likely, a 1:1 complex was formed. In this study, a truncated MBNL1 (1-272 amino acids) containing four zinc finger motifs of MBNL1 and a hexahistidine tag (C-terminus) was employed. This MBNL1 construct and the full-length MBNL1 have the similar affinities to rCUG repeats.
# To determine the inhibition constant of bivalent ligands 2a and 2b, the MBNL1-(CUG)16 mixture, in which ca. 50% of the RNA is free, was incubated with various concentrations of ligand (FIG. 1a). The dimer concentrations were not raised to higher than 10 μM due to the aggregation on the gel at high concentrations. As the concentration of ligand increased, more RNA was released from the complex with MBNL protein. By fitting the plot of bound RNA fractions versus ligand concentrations with an appropriate equation, the IC50 value was determined (FIG. 1b).
# (CUG)16 RNA was labeled with [γ-^32P]-ATP using T4 poly-nucleotide kinase (New England Biolabs). Labeled RNA was purified by phenol extraction and ethanol precipitation. Labeled RNA was heated at 95° C. for 5 min, then placed on ice for 10 min and diluted in protein binding buffer (175 mM NaCl, 5 mM MgCl2, 20 mM Tris-HCl (pH 8), 1.25 mM 2-mercapto-ethanol (BME), 12.5% glycerol, 2 mg/ml bovine serum albumin (BSA), 0.1 mg/ml heparin, 0.05% or 0.1% Triton X). For MBNL1-(CUG)16 binding study, MBNL1 was serially diluted by a factor of 3 in protein binding buffer. To each solution was added labeled RNA, so that the final concentration of RNA was 0.2 nM. The resulting mixtures were incubated at room temperature for 10 min and loaded onto a 6% polyacrylamide gel (80:1) at 4° C. The gel was run for 2 h at 180 V in Tris-Borate 0.5× buffer (pH 8.2-8.3). Gels were dried at 80° C. under high vacuum for 2 h, developed overnight in phosphor exposure cassette, and visualized on a Molecular Dynamics Storm PhosphorImager. The KD (1:1 stoichiometry assumption) was obtained by fitting the normalized fraction RNA bound versus the concentration of protein using the equation: Fraction RNA bound=Bmax×[MBNL1]total^h/(KD^h+MBNL1]total^h) where Bmax is maximum fraction RNA bound, h is a Hill slope. Protein concentration in reaction mixture was larger than 10-fold excess over RNA concentration. Data is illustrated in FIGS. 6 and 7.
# [2] = earlier work; cited from earlier work
# MBNL1-(CUG)12 complex = details: earlier work; read-out: KI, inhibition of MBNL1-(CUG)12 complex; cited from earlier work
# [3] = test system: insulin receptor (IR) pre-mRNA splicing; details: DM1 model cells; cited from earlier work
# [4] = earlier work; cited from earlier work; remark: listed apart in the source
# [5] = test system: MBNL1-rCUG^exp nuclear foci; details: cited from earlier work
SMILES,correction of IR splicing ([1]; DM1 cell model),"abundance of IR isoform B ([1]; DM1 cell model (normal ca. 53%, DM1 34%))",inhibitory power toward the MBNL1-rCUG^exp interaction relative to compound 1a (fold greater) (MBNL1-(CUG)16 complex),IC50 (MBNL1-(CUG)16 complex; EMSA),Ki (MBNL1-(CUG)16 complex; EMSA),"KI of 1a relative to that for 2a and 2b (fold higher) (MBNL1-(CUG)16 complex; EMSA, identical conditions)",cytotoxicity [2],Ki (MBNL1-(CUG)12 complex),mis-splicing of cTNT and IR pre-mRNA (earlier work) [3],water solubility [4],"reduction of foci to (previous study) ([5]; 100 μM, previous study)",MBNL1-rCUG^exp nuclear foci in DM1 model cells (earlier work) ([5]; earlier work)
N=C(NCCCCNc1nc(N)nc(N)n1)c1ccc(C(=N)NCCCCNc2nc(N)nc(NCCCn3cc(CNc4nc(N)nc(NCCCCNC(=N)c5ccc(C(=N)NCCCCNc6nc(N)nc(N)n6)cc5)n4)nn3)n2)cc1 [Compound 2a],ca. 80%,49%,ca. 1000 fold,0.29 ± 0.03 µM,0.025 ± 0.008 µM,–,–,–,–,–,–,–
N=C(NCCCCNc1nc(N)nc(N)n1)c1ccc(C(=N)NCCCCNc2nc(N)nc(N)n2)cc1 [Compound 1a],–,–,–,189 ± 33 µM,16 ± 6 µM,~1000 fold,low cytotoxicity,8 µM,partially rescuing the mis-splicing,excellent water solubility,32%,dissolved foci
